# Results as given in patent US20220204539A1, “CD73 INHIBITORS” (BioArdis LLC, priority 2019, published 2022).
# pIC50: −log10 of the molar value.
# Molecular target: T1, Recombinant Human 5′-Nucleotidase (CD73) (Homo sapiens, UniProt P21589)
# T1 construct: CHO derived CD73 (Trp27-Lys547), with a C-terminal 6-His tag; 6-His (C); purchased R&D 5795-EN; host or cells: CHO
# T1 sequence (P21589 27-547): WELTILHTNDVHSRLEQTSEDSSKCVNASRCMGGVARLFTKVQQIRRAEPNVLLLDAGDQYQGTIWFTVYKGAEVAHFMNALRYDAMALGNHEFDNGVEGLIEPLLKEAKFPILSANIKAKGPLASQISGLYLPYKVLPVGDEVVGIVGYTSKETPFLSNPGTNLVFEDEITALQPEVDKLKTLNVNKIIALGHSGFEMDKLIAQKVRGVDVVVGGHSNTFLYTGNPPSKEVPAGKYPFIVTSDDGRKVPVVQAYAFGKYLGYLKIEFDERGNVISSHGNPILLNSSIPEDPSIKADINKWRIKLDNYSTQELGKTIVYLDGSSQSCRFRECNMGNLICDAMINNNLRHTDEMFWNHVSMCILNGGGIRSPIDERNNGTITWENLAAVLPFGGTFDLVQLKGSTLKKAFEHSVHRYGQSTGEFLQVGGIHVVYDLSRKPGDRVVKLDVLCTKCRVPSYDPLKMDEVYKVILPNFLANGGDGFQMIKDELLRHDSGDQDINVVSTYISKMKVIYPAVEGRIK
# Experiment: CD73 Enzyme Assay
# Format: biochemical
# Conditions: human CD73 0.5 nM, AMP 30 μM, PiColorLock phosphate detection; read-out: Potency (IC50, CD73 enzyme assay)
# Description: Soluble recombinant CD73 catalyzes the conversion of adenosine monophosphate (AMP) to adenosine and inorganic phosphate. The phosphate detection reagent, PiColorLock™ (Innova Bioscience, Cat #303-0125) is based on the change in absorbance of the dye malachite green in the presence of inorganic phosphate (Pi) and this property can be exploited to measure any enzyme that generates Pi. Recombinant Human 5′-Nucleotidase (CD73) (R&D #5795-EN, CHO derived CD73 (Trp27-Lys547), with a C-terminal 6-His tag) was used in the enzymatic assay. This assay was run in a 384-well plate format (Corning® NBS™ 384 well plates, Cat #3640). The basic assay procedure involves two steps: 1) Enzyme reaction: The CD73 enzyme (R&D #5795-EN) is incubated in the presence or absence of compounds. AMP (sigma, cat #01930) is added to start the […] reaction. 2) Detection step: Gold mix is added to the assay system, then stabilizers are added. After incubation the absorbance of the solution is read at OD 635 nm. The recorded OD signal is proportional to the enzyme activity.
# Briefly, 25 μl human CD73 (0.5 nM final concentration) in the enzymatic buffer solutions (20 mM Tris, 25 mM NaCl, 1 mM MgCl2, pH 7.5, 0.005% Tween-20) were mixed with various concentrations of the test compound (dissolved in 100% DMSO). These solutions were incubated for 15 min at 25° C., and subsequently 25 μl AMP (30 μM final concentration) was added to start the reaction. The final reaction mixture of enzyme-substrate-compound was incubated for 20 min at 37° C. Meanwhile ‘Gold mix’ was prepared shortly before use by adding 1/100 vol. of accelerator to the PiColorLock™ Gold reagent. 12 μL/well of the ‘Gold mix’ was added to assay plate containing 50 μL enzyme reaction buffer and incubated at 25° C. for 5 min. 5 μL/well stabilizer was added to the assay plate and incubated at 25° C. for 30 min. The absorbance of the well solutions was measured at 635 nm on a Spark 10M instrument (TECAN).
# The percent (%) inhibition at each concentration of a compound was calculated relative to the OD value in the Max and Min control wells contained within each assay plate. The Max control wells contained enzyme and substrate as 0% inhibition, and the M control wells only contained substrate without enzyme as 100% inhibition. The concentrations and percent inhibition values for a test compound are plotted and the concentration of the compound required to achieve 50% inhibition (IC50) was determined with a four-parameter logistic dose response equation.
row,pIC50,SMILES
1,6.00 to 7.00,"O=P(O)(CP1(=O)OCC[C@@H](c2cccc(Cl)c2)O1)OC[C@H]1O[C@@H](c2cnc3c(NC4CCCC4)nc(Cl)nn23)[C@H](O)[C@@H]1O (stereo partly drawn) [Compound 58, ((2R,3S,4R,5S)-5-(2-chloro-4-(cyclopentylamino)imidazo[2,1-f][1,2,4]triazin-7-yl)-3,4-dihydroxytetrahydrofuran-2-yl)methyl hydrogen (((4S)-4-(3-chlorophenyl)-2-oxido-1,3,2-dioxaphosphinan-2-yl)methyl)phosphonate]"
2,6.00 to 7.00,"O=P(O)(O)CP(=O)(O)OC[C@H]1O[C@@H](c2cnc3c(NC4CCCC4)nc(C4CC4)nn23)[C@H](O)[C@@H]1O [Compound 60, (((((2R,3S,4R,1S)-5-(4-(cyclopentylamino)-2-cyclopropylimidazo[2,1-f][1,2,4]triazin-7-yl)-3,4-dihydroxytetrahydrofuran-2-yl)methoxy)(hydroxy)phosphoryl)methyl)phosphonic Acid]"
3,6.00 to 7.00,"O=P(O)(O)CP(=O)(O)OC[C@H]1O[C@@H](c2cnc3c(OC4CCCC4)ncnn23)[C@H](O)[C@@H]1O [Compound 61, (((((2R,3S,4R,1S)-5-(4-(cyclopentyloxy)imidazo[2,1-f][1,2,4]triazin-7-yl)-3,4-dihydroxytetrahydrofuran-2-yl)methoxy)(hydroxy)phosphoryl)methyl)phosphonic Acid]"
4,7.00 to 8.00,"COCCOCCOP(=O)(CP(=O)(O)O)OC[C@H]1O[C@@H](c2cnc3c(NC4CCCC4)nc(Cl)nn23)[C@H](O)[C@@H]1O (stereo partly drawn) [Compound 67, (((((2R,3S,4R,5S)-5-(2-chloro-4-(cyclopentylamino)imidazo[2,1-f][1,2,4]triazin-7-yl)-3,4-dihydroxytetrahydrofuran-2-yl)methoxy)(2-(2-methoxyethoxy)ethoxy)phosphoryl)methyl)phosphonic acid]"
5,7.00 to 8.00,"N#CCCOP(=O)(CP(=O)(O)O)OC[C@H]1O[C@@H](c2cnc3c(NC4CCCC4)nc(Cl)nn23)[C@H](O)[C@@H]1O (stereo partly drawn) [Compound 69, (((((2R,3S,4R,5S)-5-(2-chloro-4-(cyclopentylamino)imidazo[2,1-f][1,2,4]triazin-7-yl)-3,4-dihydroxytetrahydrofuran-2-yl)methoxy)(2-cyanoethoxy)phosphoryl)methyl) phosphonic acid]"
6,6.00 to 7.00,"CC(C)OC(=O)OCOP(=O)(CP(=O)(O)OC[C@H]1O[C@@H](c2cnc3c(NC4CCCC4)nc(Cl)nn23)[C@H](O)[C@@H]1O)OCOC(=O)OC(C)C [Compound 70, (((((((2R,3S,4R,5S)-5-(2-chloro-4-(cyclopentylamino)imidazo[2,1-f][1,2,4]triazin-7-yl)-3,4-dihydroxytetrahydrofuran-2-yl)methoxy)(hydroxy)phosphoryl)methyl)phosphoryl)bis(oxy)) bis(methylene) diisopropyl bis(carbonate)]"

row,SMILES,pIC50
1,"COP(=O)(CP(=O)(OC)OC[C@H]1O[C@@H](c2cnc3c(NC4CCCC4)nc(Cl)nn23)[C@H](O)[C@@H]1O)OC (stereo partly drawn) [Compound 57, ((2R,3S,4R,5S)-5-(2-chloro-4-(cyclopentylamino)imidazo[2,1-f][1,2,4]triazin-7-yl)-3,4-dihydroxytetrahydrofuran-2-yl)methyl methyl ((dimethoxyphosphoryl)methyl)phosphonate]",< 6.00
2,"COP(=O)(CP1(=O)OCC[C@@H](c2cccc(Cl)c2)O1)OC[C@H]1O[C@@H](c2cnc3c(NC4CCCC4)nc(Cl)nn23)[C@H](O)[C@@H]1O (stereo partly drawn) [Compound 59, ((2R,3S,4R,5S)-5-(2-chloro-4-(cyclopentylamino)imidazo[2,1-f][1,2,4]triazin-7-yl)-3,4-dihydroxytetrahydrofuran-2-yl)methyl methyl (((4S)-4-(3-chlorophenyl)-2-oxido-1,3,2-dioxaphosphinan-2-yl)methyl)phosphonate]",< 6.00
